pIC50: −log10 of the molar value. Bridge positions count the residues as written; N and C are the ends. Square brackets hold non-standard residues; d marks the D form. Peptide text beside a SMILES is read from it. * marks the point of attachment. Phe(4-COOH) = N[C@@H](Cc1ccc(C(=O)O)cc1)C(=O)O; Bip = N[C@@H](Cc1ccc(-c2ccccc2)cc1)C(=O)O; Phe(3-Me) = Cc1cccc(C[C@H](N)C(=O)O)c1; Cha = N[C@@H](CC1CCCCC1)C(=O)O; Carboxymethyl = O=C(O)C*; Orn = NCCC[C@H](N)C(=O)O; Aun = NCCCCCCCCCCC(=O)O; Dab = NCC[C@H](N)C(=O)O; Dap = NC[C@H](N)C(=O)O; AEEA = NCCOCCOCC(=O)O
Target: T1, PD-1/PD-L1 interaction (PE-labeled human PD-L1-Ig binding to Jurkat cell line over-expressing human PD-1) (Homo sapiens, UniProt Q15116)
T1 construct: expressed in transfected cells; host or cells: Jurkat
T1 sequence (Q15116 25-288): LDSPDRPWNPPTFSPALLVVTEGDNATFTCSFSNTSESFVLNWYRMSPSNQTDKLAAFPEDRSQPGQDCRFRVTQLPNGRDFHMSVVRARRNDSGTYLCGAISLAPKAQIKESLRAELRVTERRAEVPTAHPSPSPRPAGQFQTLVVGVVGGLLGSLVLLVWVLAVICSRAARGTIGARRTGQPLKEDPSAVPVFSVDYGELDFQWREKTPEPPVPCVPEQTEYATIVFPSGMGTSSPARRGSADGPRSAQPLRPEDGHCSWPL
Assay: Jurkat-PD-1 Cell Binding High-Content Screening Assay (CBA)
Assay type: cell-based
Conditions: Jurkat cell line over-expressing human PD-1; PE-labeled PD-L1-Ig 20 nM final; read-out: Jurkat hPD1-PDL1 IC50
Outline: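 First, compound is added to PD-1-expressing Jurkat cells in serum-containing DMEM and left 2 h at 37° C. Next, PE-conjugated PD-L1-Ig is introduced at 20 nM final concentration for 1 hour. Finally, cells are fixed in 4% paraformaldehyde with Hoechst 33342, washed and imaged.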

SMILES | pIC50
CC(C)C[C@H]1NC(=O)[C@H](CCCN)NC(=O)[C@H](C(C)C)NC(=O)[C@H](Cc2ccc(-c3ccccc3)cc2)NC(=O)[C@H](C(C)C)NC(=O)[C@H](Cc2c[nH]c3ccccc23)NC(=O)[C@H](CC(=O)O)NC(=O)[C@H](Cc2ccc(OCC(=O)O)cc2)NC(=O)[C@H](Cc2ccc(OCC(=O)O)cc2)NC(=O)CSC[C@@H](C(=O)N[C@@H](CCN)C(=O)NCCOCCOCC(=O)NCCCCCCCCCCC(=O)O)NC(=O)[C@H](CN)NC(=O)[C@H](C(C)C)NC(=O)[C@H](CC2CCCCC2)NC(=O)[C@H](CCN)NC1=O [Compound 2554] ({CH2CO}-Y(Carboxymethyl)Y(Carboxymethyl)DWV[Bip]V[Orn][dL][Dab][Cha]V[Dap]C[Dab][AEEA][Aun]-OH; thioether N-14) | 7.94
CC(C)C[C@H]1NC(=O)[C@H](CCCN)NC(=O)[C@H](C(C)C)NC(=O)[C@H](Cc2ccc(-c3ccccc3)cc2)NC(=O)[C@H](C(C)C)NC(=O)[C@H](Cc2c[nH]c3ccccc23)NC(=O)[C@H](CC(=O)O)NC(=O)[C@H](Cc2ccc(C(=O)O)cc2)NC(=O)[C@H](Cc2ccc(OCC(=O)O)cc2)NC(=O)CSC[C@@H](C(=O)N[C@@H](CCN)C(=O)NCCCCCCCCCCC(=O)O)NC(=O)[C@H](CCCCN)NC(=O)[C@H](C(C)C)NC(=O)[C@H](CC2CCCCC2)NC(=O)[C@H](CCN)NC1=O [Compound 2555] ({CH2CO}-Y(Carboxymethyl)[Phe(4-COOH)]DWV[Bip]V[Orn][dL][Dab][Cha]VKC[Dab][Aun]-OH; thioether N-14) | 7.62
CC(C)C[C@H]1NC(=O)[C@H](CCCN)NC(=O)[C@H](C(C)C)NC(=O)[C@H](Cc2ccc(-c3ccccc3)cc2)NC(=O)[C@H](C(C)C)NC(=O)[C@H](Cc2c[nH]c3ccccc23)NC(=O)[C@H](CC(=O)O)NC(=O)[C@H](Cc2ccc(OCC(=O)O)cc2)NC(=O)[C@H](Cc2ccc(OCC(=O)O)cc2)NC(=O)CSC[C@@H](C(=O)N[C@@H](CCN)C(=O)NCCCCCCCCCCC(=O)O)NC(=O)[C@H](CCCNC(=N)N)NC(=O)[C@H](C(C)C)NC(=O)[C@H](CC2CCCCC2)NC(=O)[C@H](CCN)NC1=O [Compound 2556] ({CH2CO}-Y(Carboxymethyl)Y(Carboxymethyl)DWV[Bip]V[Orn][dL][Dab][Cha]VRC[Dab][Aun]-OH; thioether N-14) | 7.36
CC(C)C[C@H]1NC(=O)[C@H](CCCN)NC(=O)[C@H](C(C)C)NC(=O)[C@H](Cc2ccc(-c3ccccc3)cc2)NC(=O)[C@H](C(C)C)NC(=O)[C@H](Cc2c[nH]c3ccccc23)NC(=O)[C@H](CC(=O)O)NC(=O)[C@H](Cc2ccc(OCC(=O)O)cc2)NC(=O)[C@H](CN)NC(=O)CSC[C@@H](C(=O)N[C@@H](CCN)C(=O)NCCCCCCCCCCC(=O)O)NC(=O)[C@H](CCCCN)NC(=O)[C@H](C(C)C)NC(=O)[C@H](CC2CCCCC2)NC(=O)[C@H](CCN)NC1=O [Compound 2557] ({CH2CO}-[Dap]Y(Carboxymethyl)DWV[Bip]V[Orn][dL][Dab][Cha]VKC[Dab][Aun]-OH; thioether N-14) | 7.92
Cc1cccc(C[C@@H]2NC(=O)[C@H](CC(=O)O)NC(=O)[C@H](Cc3ccc(OCC(=O)O)cc3)NC(=O)[C@H](CN)NC(=O)CSC[C@@H](C(=O)N[C@@H](CCN)C(=O)NCCCCCCCCCCC(=O)O)NC(=O)[C@H](CN)NC(=O)[C@H](C(C)C)NC(=O)[C@H](CC3CCCCC3)NC(=O)[C@H](CCN)NC(=O)[C@@H](CC(C)C)NC(=O)[C@H](CCCN)NC(=O)[C@H](C(C)C)NC(=O)[C@H](Cc3ccc(-c4ccccc4)cc3)NC(=O)[C@H](C(C)C)NC2=O)c1 [Compound 2558] ({CH2CO}-[Dap]Y(Carboxymethyl)D[Phe(3-Me)]V[Bip]V[Orn][dL][Dab][Cha]V[Dap]C[Dab][Aun]-OH; thioether N-14) | 7.97
Cc1cccc(C[C@@H]2NC(=O)[C@H](CC(=O)O)NC(=O)[C@H](Cc3ccc(OCC(=O)O)cc3)NC(=O)[C@H](CN)NC(=O)CSC[C@@H](C(=O)N[C@@H](CCN)C(=O)NCCCCCCCCCCC(=O)O)NC(=O)[C@H](CCCN)NC(=O)[C@H](C(C)C)NC(=O)[C@H](CC3CCCCC3)NC(=O)[C@H](CCN)NC(=O)[C@@H](CC(C)C)NC(=O)[C@H](CCCN)NC(=O)[C@H](C(C)C)NC(=O)[C@H](Cc3ccc(-c4ccccc4)cc3)NC(=O)[C@H](C(C)C)NC2=O)c1 [Compound 2559] ({CH2CO}-[Dap]Y(Carboxymethyl)D[Phe(3-Me)]V[Bip]V[Orn][dL][Dab][Cha]V[Orn]C[Dab][Aun]-OH; thioether N-14) | 7.95
Cc1cccc(C[C@@H]2NC(=O)[C@H](CC(=O)O)NC(=O)[C@H](Cc3ccc(OCC(=O)O)cc3)NC(=O)[C@H](CN)NC(=O)CSC[C@@H](C(=O)N[C@@H](CCN)C(=O)NCCCCCCCCCCC(=O)O)NC(=O)[C@H](CCCNC(=N)N)NC(=O)[C@H](C(C)C)NC(=O)[C@H](CC3CCCCC3)NC(=O)[C@H](CCN)NC(=O)[C@@H](CC(C)C)NC(=O)[C@H](CCCN)NC(=O)[C@H](C(C)C)NC(=O)[C@H](Cc3ccc(-c4ccccc4)cc3)NC(=O)[C@H](C(C)C)NC2=O)c1 [Compound 2560] ({CH2CO}-[Dap]Y(Carboxymethyl)D[Phe(3-Me)]V[Bip]V[Orn][dL][Dab][Cha]VRC[Dab][Aun]-OH; thioether N-14) | 7.77
CC(C)C[C@H]1NC(=O)[C@H](CCCN)NC(=O)[C@H](C(C)C)NC(=O)[C@H](Cc2ccc(-c3ccccc3)cc2)NC(=O)[C@H](C(C)C)NC(=O)[C@H](Cc2c[nH]c3ccccc23)NC(=O)[C@H](CC(=O)O)NC(=O)[C@H](Cc2ccc(OCC(=O)O)cc2)NC(=O)[C@H](Cc2ccc(OCC(=O)O)cc2)NC(=O)CSC[C@@H](C(=O)N[C@@H](CCN)C(=O)NCCCCCCCCCCC(=O)O)NC(=O)[C@H](CCCN)NC(=O)[C@H](C(C)C)NC(=O)[C@H](CC2CCCCC2)NC(=O)[C@H](CCN)NC1=O [Compound 2561] ({CH2CO}-Y(Carboxymethyl)Y(Carboxymethyl)DWV[Bip]V[Orn][dL][Dab][Cha]V[Orn]C[Dab][Aun]-OH; thioether N-14) | 7.84
CC(C)C[C@H]1NC(=O)[C@H](CCCN)NC(=O)[C@H](C(C)C)NC(=O)[C@H](Cc2ccc(-c3ccccc3)cc2)NC(=O)[C@H](C(C)C)NC(=O)[C@H](Cc2c[nH]c3ccccc23)NC(=O)[C@H](CC(=O)O)NC(=O)[C@H](Cc2ccc(OCC(=O)O)cc2)NC(=O)[C@H](Cc2ccc(OCC(=O)O)cc2)NC(=O)CSC[C@@H](C(=O)N[C@@H](CCN)C(=O)NCCCCCCCCCCC(=O)O)NC(=O)[C@H](CN)NC(=O)[C@H](C(C)C)NC(=O)[C@H](CC2CCCCC2)NC(=O)[C@H](CCN)NC1=O [Compound 2562] ({CH2CO}-Y(Carboxymethyl)Y(Carboxymethyl)DWV[Bip]V[Orn][dL][Dab][Cha]V[Dap]C[Dab][Aun]-OH; thioether N-14) | 7.41
CC(C)C[C@H]1NC(=O)[C@H](CCCN)NC(=O)[C@H](C(C)C)NC(=O)[C@H](Cc2ccc(-c3ccccc3)cc2)NC(=O)[C@H](C(C)C)NC(=O)[C@H](Cc2c[nH]c3ccccc23)NC(=O)[C@H](CC(=O)O)NC(=O)[C@H](Cc2ccc(C(=O)O)cc2)NC(=O)[C@H](Cc2ccc(OCC(=O)O)cc2)NC(=O)CSC[C@@H](C(=O)NCCOCCOCC(=O)NCCCCCCCCCCC(=O)O)NC(=O)[C@H](CCCCN)NC(=O)[C@H](C(C)C)NC(=O)[C@H](CC2CCCCC2)NC(=O)[C@H](CCN)NC1=O [Compound 2563] ({CH2CO}-Y(Carboxymethyl)[Phe(4-COOH)]DWV[Bip]V[Orn][dL][Dab][Cha]VKC[AEEA][Aun]-OH; thioether N-14) | 7.53
CC(C)C[C@H]1NC(=O)[C@H](CCCN)NC(=O)[C@H](C(C)C)NC(=O)[C@H](Cc2ccc(-c3ccccc3)cc2)NC(=O)[C@H](C(C)C)NC(=O)[C@H](Cc2c[nH]c3ccccc23)NC(=O)[C@H](CC(=O)O)NC(=O)[C@H](Cc2ccc(OCC(=O)O)cc2)NC(=O)[C@H](Cc2ccc(OCC(=O)O)cc2)NC(=O)CSC[C@@H](C(=O)NCCOCCOCC(=O)NCCCCCCCCCCC(=O)O)NC(=O)[C@H](CCCNC(=N)N)NC(=O)[C@H](C(C)C)NC(=O)[C@H](CC2CCCCC2)NC(=O)[C@H](CCN)NC1=O [Compound 2564] ({CH2CO}-Y(Carboxymethyl)Y(Carboxymethyl)DWV[Bip]V[Orn][dL][Dab][Cha]VRC[AEEA][Aun]-OH; thioether N-14) | 8.00
CC(C)C[C@H]1NC(=O)[C@H](CCCN)NC(=O)[C@H](C(C)C)NC(=O)[C@H](Cc2ccc(-c3ccccc3)cc2)NC(=O)[C@H](C(C)C)NC(=O)[C@H](Cc2c[nH]c3ccccc23)NC(=O)[C@H](CC(=O)O)NC(=O)[C@H](Cc2ccc(OCC(=O)O)cc2)NC(=O)[C@H](CN)NC(=O)CSC[C@@H](C(=O)NCCOCCOCC(=O)NCCCCCCCCCCC(=O)O)NC(=O)[C@H](CCCCN)NC(=O)[C@H](C(C)C)NC(=O)[C@H](CC2CCCCC2)NC(=O)[C@H](CCN)NC1=O [Compound 2565] ({CH2CO}-[Dap]Y(Carboxymethyl)DWV[Bip]V[Orn][dL][Dab][Cha]VKC[AEEA][Aun]-OH; thioether N-14) | 8.27
Cc1cccc(C[C@@H]2NC(=O)[C@H](CC(=O)O)NC(=O)[C@H](Cc3ccc(OCC(=O)O)cc3)NC(=O)[C@H](CN)NC(=O)CSC[C@@H](C(=O)NCCOCCOCC(=O)NCCCCCCCCCCC(=O)O)NC(=O)[C@H](CN)NC(=O)[C@H](C(C)C)NC(=O)[C@H](CC3CCCCC3)NC(=O)[C@H](CCN)NC(=O)[C@@H](CC(C)C)NC(=O)[C@H](CCCN)NC(=O)[C@H](C(C)C)NC(=O)[C@H](Cc3ccc(-c4ccccc4)cc3)NC(=O)[C@H](C(C)C)NC2=O)c1 [Compound 2566] ({CH2CO}-[Dap]Y(Carboxymethyl)D[Phe(3-Me)]V[Bip]V[Orn][dL][Dab][Cha]V[Dap]C[AEEA][Aun]-OH; thioether N-14) | 8.03

Source: US20260022142A1, “MACROCYCLIC IMMUNOMODULATORS” (Bristol-Myers Squibb Company, priority 2022, published 2026)
